This note sets out measurements from US20250340563A1, “FUSED PYRIDAZINE DERIVATIVES AS NLRP3 INHIBITORS” (Takeda Pharmaceutical Company Limited, priority 2022, published 2025).

Broadly, the IC50 is the concentration at which inhibition is half-maximal. Low values mean inhibition by little substance, high ones a need for much substance.

Molecules are shown by their SMILES.

In this experiment the target is NLRP3 inflammasome (Homo sapiens, UniProt Q96P20). Nature of the experiment: IL-1β assay in IFN-γ-differentiated, LPS-primed, ATP-activated THP-1 cells (ELISA). Type of experiment: cell-based. The settings on record: 50 ng/mL LPS priming, 2.5 mM ATP activation, 2 hours. As to the method: Monocytic THP-1 cells (ATCC: TIB-202) are maintained in accordance with the provider's instructions in RPMI media (Life Technologies, Cat #A10491-01); RPMI is supplemented with 10% heat inactivated fetal bovine serum (Hyclone Cat #SH30396.03). The cells are differentiated into macrophages by the addition of 25 ng/mL IFN-7 (PeproTech, Cat #300-02-100UG) for 24 hours at 37° C./5% CO2. Media is exchanged with fresh media with no FBS, and the cells are treated with 50 ng/mL LPS (priming step) for 24 hours at 37° C./5% CO2 (LPS-EK: Invivogen, Cat #tlrl-peklps). Media is exchanged with fresh media with no FBS. The cells are plated at 40,000 cells per well in 384-well flat-bottom cell culture plates (Costar 3764) containing compounds (added in 1:1000) in a 1:3.16 serial dilution series in DMSO and are incubated for 30 minutes at 37° C./5% CO2. The NLRP3 inflammasome is activated with the addition of 2.5 mM ATP (Sigma Cat #A3377) and the cells are incubated for 2 hours at 37° C./5% CO2. At the end of the incubation period, 40 μL supernatant is removed, and […] are monitored using an ELISA (Human […], R&D systems, Cat #DY201) in accordance with the manufacturer's instructions.
Chain of NLRP3 inflammasome (Q96P20 whole entry): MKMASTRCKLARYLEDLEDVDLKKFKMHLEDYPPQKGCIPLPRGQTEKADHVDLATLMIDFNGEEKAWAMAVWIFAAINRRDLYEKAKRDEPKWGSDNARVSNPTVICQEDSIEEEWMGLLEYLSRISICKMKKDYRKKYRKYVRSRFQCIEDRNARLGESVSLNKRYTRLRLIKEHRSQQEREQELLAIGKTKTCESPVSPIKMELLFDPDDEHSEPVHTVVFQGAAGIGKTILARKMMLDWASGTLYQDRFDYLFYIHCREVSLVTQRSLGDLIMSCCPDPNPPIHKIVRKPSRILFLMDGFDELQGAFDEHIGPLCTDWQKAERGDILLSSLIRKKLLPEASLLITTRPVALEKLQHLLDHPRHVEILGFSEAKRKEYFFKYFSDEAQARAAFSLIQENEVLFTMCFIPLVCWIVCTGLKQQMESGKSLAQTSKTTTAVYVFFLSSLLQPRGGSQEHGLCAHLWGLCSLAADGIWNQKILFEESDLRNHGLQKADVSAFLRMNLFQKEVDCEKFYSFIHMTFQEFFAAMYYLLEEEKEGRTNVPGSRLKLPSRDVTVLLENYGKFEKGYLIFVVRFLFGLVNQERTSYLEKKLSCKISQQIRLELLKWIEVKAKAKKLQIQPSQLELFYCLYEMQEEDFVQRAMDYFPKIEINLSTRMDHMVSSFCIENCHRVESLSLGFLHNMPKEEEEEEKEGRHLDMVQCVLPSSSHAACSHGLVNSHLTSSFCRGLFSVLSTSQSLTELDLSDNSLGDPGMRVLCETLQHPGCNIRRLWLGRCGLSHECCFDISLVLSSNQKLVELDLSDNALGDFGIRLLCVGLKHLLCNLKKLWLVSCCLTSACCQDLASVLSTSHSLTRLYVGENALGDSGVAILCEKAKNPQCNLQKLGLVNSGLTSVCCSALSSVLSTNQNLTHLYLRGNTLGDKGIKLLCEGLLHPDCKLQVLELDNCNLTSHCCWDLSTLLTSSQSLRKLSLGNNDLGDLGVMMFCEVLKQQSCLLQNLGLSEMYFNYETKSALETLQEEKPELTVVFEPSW
The IC50 values are calculated from a plot of percentage of inhibition versus the inhibitor concentration by a logistics curve fit according to: Y=[Bottom+(Top−Bottom)]/(1+10^[(Log IC50−X)·Hill Slope], where Y is the % inhibition at the inhibitor concentration, X, “Bottom” is the lowest inhibition value, i.e. 0%, “Top” is the maximum inhibition value, i.e. 100%, and the “Hill Slope” describes the slope of the sigmoidal curve between the “Bottom” and “Top” values. The curve fitting was conducted with internally developed software.
(An ELISA detects its analyte on a solid surface through an enzyme-linked reagent.)
Consider `COc1ccc(-c2nnc(N[C@@H]3C[C@@H](F)CN(C4CC4)C3)c3ccccc23)cc1` [Example 55, N-((3R,5R)-1-cyclopropyl-5-fluoropiperidin-3-yl)-4-(4-methoxyphenyl)phthalazin-1-amine], for which the midpoint of inhibition, the IC50, lay at 575 nM.
For `CN1CCCC(Nc2nnc(-c3ccc(Cl)cc3)c3ccncc23)C1` (centres unmarked) [Example 63, 1-(4-chlorophenyl)-N-(1-methylpiperidin-3-yl)pyrido[3,4-d]pyridazin-4-amine] the value was 381 nM; for `Cc1cc(Cl)ccc1-c1nnc(N[C@@H]2CCCN(C)C2)c2cnccc12` [Example 31, (R)-1-(4-chloro-2-methylphenyl)-N-(1-methylpiperidin-3-yl)pyrido[3,4-d]pyridazin-4-amine], 34 nM.
The compound `Clc1ccc(-c2nnc(NC3CCCN(c4ccccn4)C3)c3ccccc23)cc1` (centres unmarked) [Example 154, 4-(4-chlorophenyl)-N-(1-(pyridin-2-yl)piperidin-3-yl)phthalazin-1-amine] yielded an IC50 of 3390 nM.
To `COc1ccc(-c2nnc(NC3(CN4CCC4)CC3)c3ccccc23)cc1` [Example 132, N-(1-(azetidin-1-ylmethyl)cyclopropyl)-4-(4-methoxyphenyl)phthalazin-1-amine] belongs 3890 nM; to `COc1cc(Cl)ccc1-c1nnc(NC2CCCN(C)C2)c2ccncc12` (centres unmarked) [Example 48, 4-(4-chloro-2-methoxyphenyl)-N-(1-methylpiperidin-3-yl)pyrido[3,4-d]pyridazin-1-amine], 3090 nM.
To `C[C@]1(O)C[C@H](Nc2nnc(-c3ccc(Cl)cc3)c3ccccc23)C1` [Example 119, trans-3-((4-(4-chlorophenyl)phthalazin-1-yl)amino)-1-methylcyclobutan-1-ol] belongs 2750 nM.
As for `Cc1cc(Cl)ccc1-c1nnc(NC2CCCN(C)C2)c2ccncc12` (centres unmarked) [Example 50, 4-(4-chloro-2-methylphenyl)-N-(1-methylpiperidin-3-yl)pyrido[3,4-d]pyridazin-1-amine], the IC50 worked out at 1320 nM.
To `CN1CCC(Nc2nnc(-c3ccc(Cl)cc3)c3ccccc23)C1=O` (centres unmarked) [Example 109, 3-((4-(4-chlorophenyl)phthalazin-1-yl)amino)-1-methylpyrrolidin-2-one] belongs 4900 nM.
To `CC(=O)N1CCC(Nc2nnc(-c3ccc(Cl)cc3)c3ccccc23)C1` (centres unmarked) [Example 160, 1-(3-((4-(4-chlorophenyl)phthalazin-1-yl)amino)pyrrolidin-1-yl)ethan-1-one] belongs 4790 nM; to `CN1CCCC(Nc2nnc(-c3ccc(Cl)cc3)c3c2CN(C2CC2)CC3)C1` (centres unmarked) [Example 103, 1-(4-chlorophenyl)-6-cyclopropyl-N-(1-methylpiperidin-3-yl)-5,6,7,8-tetrahydropyrido[3,4-d]pyridazin-4-amine], 3630 nM.
The compound `FC1(F)CNCC(Nc2nnc(-c3ccc(Cl)cc3)c3ccccc23)C1` (centres unmarked) [Example 191, 4-(4-chlorophenyl)-N-(5,5-difluoropiperidin-3-yl)phthalazin-1-amine] displayed an IC50 of 1290 nM.
For `CN1CCC[C@@H](Nc2nnc(-c3ccc(OC(F)(F)F)cc3)c3ccncc23)C1` [Example 32, (R)—N-(1-methylpiperidin-3-yl)-1-(4-(trifluoromethoxy)phenyl)pyrido[3,4-d]pyridazin-4-amine] the value was 36 nM; for `COc1ccc(-c2nnc(NCC(C)N3CCCC3)c3ccccc23)cc1` (centres unmarked) [Example 129, 4-(4-methoxyphenyl)-N-(2-(pyrrolidin-1-yl)propyl)phthalazin-1-amine], 2820 nM.
To `CN1CCC[C@H](Nc2nnc(-c3ccc(Cl)cc3F)c3ccncc23)C1` [Example 70, (S)-1-(4-chloro-2-fluorophenyl)-N-(1-methylpiperidin-3-yl)pyrido[3,4-d]pyridazin-4-amine] belongs 2000 nM; to `Cc1ccccc1-c1nnc(NC2CCCN(C)C2)c2ccccc12` (centres unmarked) [Example 12, N-(1-methylpiperidin-3-yl)-4-(o-tolyl)phthalazin-1-amine], 2570 nM.
For `CN1CCC[C@@H](Nc2nnc(-c3ccc(C(F)(F)F)cc3)c3ccncc23)C1` [Example 34, (R)—N-(1-methylpiperidin-3-yl)-1-(4-(trifluoromethyl)phenyl)pyrido[3,4-d]pyridazin-4-amine] the value was 28 nM; for `CCN1CC(C)C(Nc2nnc(-c3ccc(Cl)cc3)c3ccccc23)C1` (centres unmarked) [Example 159, 4-(4-chlorophenyl)-N-(1-ethyl-4-methylpyrrolidin-3-yl)phthalazin-1-amine], 3630 nM; for `CN1C[C@H](F)C[C@@H](Nc2nnc(-c3ccc(Cl)cc3F)c3cnccc23)C1` [Example 183, 4-(4-chloro-2-fluorophenyl)-N-((3R,5R)-5-fluoro-1-methylpiperidin-3-yl)pyrido[3,4-d]pyridazin-1-amine], 589 nM.
In the case of `CC(C)(C)c1ccc(-c2nnc(Nc3cccc(O)c3)c3ccccc23)cc1` [Example 5, 3-((4-(4-(tert-butyl)phenyl)phthalazin-1-yl)amino)phenol], the IC50 came to 1440 nM.
To `COc1cc(Cl)ccc1-c1nnc(NC2CCCN(C)C2)c2cnccc12` (centres unmarked) [Example 47, 1-(4-chloro-2-methoxyphenyl)-N-(1-methylpiperidin-3-yl)pyrido[3,4-d]pyridazin-4-amine] belongs 692 nM; to `CCN1CCCC1CNc1nnc(-c2ccc(OC)cc2)c2ccccc12` (centres unmarked) [Example 125, N-((1-ethylpyrrolidin-2-yl)methyl)-4-(4-methoxyphenyl)phthalazin-1-amine], 2750 nM; to `CN1CCCC(Nc2nnc(-c3ccc(Cl)cc3Cl)c3cnccc23)C1` (centres unmarked) [Example 52, 4-(2,4-dichlorophenyl)-N-(1-methylpiperidin-3-yl)pyrido[3,4-d]pyridazin-1-amine], 2400 nM.
To `FC(F)CN1CCCC(Nc2nnc(-c3ccc(Cl)cc3)c3ccccc23)C1` (centres unmarked) [Example 142, 4-(4-chlorophenyl)-N-(1-(2,2-difluoroethyl)piperidin-3-yl)phthalazin-1-amine] belongs 195 nM; to `COc1cc(F)ccc1-c1nnc(N[C@@H]2C[C@@H](F)CN(C)C2)c2ccncc12` [Example 182, N-((3R,5R)-5-fluoro-1-methylpiperidin-3-yl)-4-(4-fluoro-2-methoxyphenyl)pyrido[3,4-d]pyridazin-1-amine], 3470 nM.
`O[C@]1(C(F)(F)F)CCC[C@H](Nc2nnc(-c3ccc(Cl)cc3)c3ccccc23)C1` [Example 115, (1R,3S)-3-((4-(4-chlorophenyl)phthalazin-1-yl)amino)-1-(trifluoromethyl)cyclohexan-1-ol] had a half-inhibitory concentration (IC50) of 2190 nM.
To `Oc1ccccc1Nc1nnc(-c2ccc(Cl)cc2)c2ccccc12` [Example 156, 2-((4-(4-chlorophenyl)phthalazin-1-yl)amino)phenol] belongs 3550 nM; to `F[C@H]1CNC[C@H](Nc2nnc(-c3ccc(Cl)cc3)c3cnccc23)C1` [Example 187, 4-(4-chlorophenyl)-N-((3R,5R)-5-fluoropiperidin-3-yl)pyrido[3,4-d]pyridazin-1-amine], 3090 nM; to `CC(C)c1ccc(-c2nnc(Nc3cccc(O)c3)c3ccccc23)cc1` [Example 7, 3-((4-(4-isopropylphenyl)phthalazin-1-yl)amino)phenol], 977 nM.
To `Cc1nccc2c(NC3CCCN(C)C3)nnc(-c3ccc(Cl)cc3)c12` (centres unmarked) [Example 77, 4-(4-chlorophenyl)-5-methyl-N-(1-methylpiperidin-3-yl)pyrido[3,4-d]pyridazin-1-amine] belongs 1510 nM; to `COc1ccc(-c2nnc(N[C@@H]3C[C@@H](F)CN(C)C3)c3ccncc23)cc1` [Example 179, N-((3R,5R)-5-fluoro-1-methylpiperidin-3-yl)-4-(4-methoxyphenyl)pyrido[3,4-d]pyridazin-1-amine], 575 nM; to `CN1CCCC(Nc2nnc(-c3ccc(Cl)cc3Cl)c3ccncc23)C1` (centres unmarked) [Example 51, 1-(2,4-dichlorophenyl)-N-(1-methylpiperidin-3-yl)pyrido[3,4-d]pyridazin-4-amine], 158 nM.
Regarding `COc1ccc(-c2nnc(N[C@@H]3CCCN(C)C3)c3cnccc23)c(F)c1` [Example 57, (R)-1-(2-fluoro-4-methoxyphenyl)-N-(1-methylpiperidin-3-yl)pyrido[3,4-d]pyridazin-4-amine], the IC50 amounted to 21 nM.
To `CN1CCCC(Nc2nnc(-c3ccccc3Cl)c3ccccc23)C1` (centres unmarked) [Example 14, 4-(2-chlorophenyl)-N-(1-methylpiperidin-3-yl)phthalazin-1-amine] belongs 2950 nM; to `CN1CC(Nc2nnc(-c3ccc(Cl)cc3)c3ccccc23)C(C)(C)C1` (centres unmarked) [Example 157, 4-(4-chlorophenyl)-N-(1,4,4-trimethylpyrrolidin-3-yl)phthalazin-1-amine], 4570 nM.
